Earlier results in patent US20040265230A1, “Compositions and methods for diagnosing and treating colon cancers” (priority 2003, published 2004).

Columns and labels:
[1] = system: lymphoid, myeloid, colon, and prostate cancer cells; details: prostate xenografts in nude mice
tumor cells = details: read-out: concentration causing 50% growth inhibition of tumor cells

CN1CC[C@H](c2c(O)cc(O)c3c(=O)cc(-c4ccccc4Cl)oc23)[C@H](O)C1 [Flavopiridol]
inhibition of cancer cells grown in vivo as tumor xenografts [1]: inhibits | IC50 (tumor cells): 60 nM
